ChEMBL document CHEMBL1201862, “PubChem BioAssay data set” (2004)
The source made the active and inactive calls.

Experiments:
[1] = target: 5-hydroxytryptamine receptor 2A (Mus musculus, UniProt P35363); assay type: functional, cell-based;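 also: CHO-K1 cells with tagged receptor and beta-arrestin; agonist potency measured as compound-induced activation of the receptor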
Mu-type opioid receptor = Mu-type opioid receptor (Homo sapiens, UniProt P35372); assay type: functional, cell-based;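 also: U2OS cells with beta-arrestin recruitment to OPRM1 by beta-gal complementation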
[2] = cytotoxicity toward DRD oncogenic fibroblasts, dose response, cell-based, non-viral oncogenic, luminescence (AID 1934); assay type: functional; details: Homo sapiens
BJ [3] = experiment: cytotoxicity toward BJ-TERT-LT-ST fibroblasts, dose response, cell-based, RAS-independent, luminescence (AID 1935); assay type: functional; details: Homo sapiens;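 also: BJ fibroblasts immortalized with TERT plus LT and ST oncogenes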
[4] = A Cell Based Secondary Assay To Explore Cytotoxicity of Compounds that Sensitize Mycobacterium Tuberculosis to Beta-Lactam Antibiotics.; assay type: functional
[5] = inhibitors of clade B AD8 Env fusion, dose response, cell-based, cherry-pick (AID 652062); assay type: functional;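 also: luciferase signal from cell-cell fusion driven by HIV-1 clade B AD8 Env; potency is for inhibitors of fusion seen as a drop in luminescence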
[6] = off-target signal loss in HeLa-CEM21 co-culture – HeLa F-luc CTL cells, cherry-picked, counter-screen for HIV-1 Env fusion inhibitor project, dose response (AID 652040); assay type: functional, cell-based;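 also: potency for signal decrease marking cytotoxic or nonspecific inhibition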
BJ [7] = experiment: cytotoxicity toward BJ-TERT fibroblasts, dose response, cell-based, RAS-independent, luminescence (AID 1933); assay type: functional; details: Homo sapiens
BJ [8] = experiment: cells; assay type: functional, cell-based; details: Homo sapiens
BJ [9] = experiment: cytotoxicity toward Ras-transformed BJeLR fibroblasts, dose response, cell-based, alamar blue fluorescence, cherrypicked samples (AID 2631); assay type: functional; details: Homo sapiens;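 also: confirmatory dose-response assay in RAS-dependent BJ fibroblasts engineered with TERT, LT and ST, with cytotoxicity read by fluorescence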
INS1 = experiment: beta cell apoptosis inhibitors, cytokine rescue, dose response, luminescence, retest (AID 449756); assay type: functional, cell-based; details: Rattus norvegicus;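 also: cell death triggered by IL-1 beta plus TNF-alpha plus IFN-gamma mixture; protective hits raise ATP signal compared with cytokine alone wells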
[10] = CEM21 lymphoblast cell cytotoxicity, dose response, cytotoxicity control for viral fusion inhibitor project, CellTiter-Glo luminescence, cherry-picked (AID 652042); assay type: functional, cell-based;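 also: potency for signal decrease meaning cytotoxicity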
[11] = inhibitors of HIV Env-driven cell fusion, dose response, cherry-pick (AID 652057); assay type: functional, cell-based
[12] = target: Luciferin 4-monooxygenase (Photinus pyralis, UniProt P08659); experiment: firefly luciferase enzyme inhibitors, dose response, biochemical, luminescence (AID 1891)
[13] = Luminescence Cell-Based Dose Confirmation HTS to Identify Inhibitors of Platelet Dense Granule Release. [Related pubchem assays: 1663 (Primary HTS), 1678 (Summary of Project)]; assay type: functional
[14] = Counterscreen for inhibitors of Trypanosoma brucei methionyl tRNA synthetase (MetRS): Luminescence-based cell-based high throughput dose response assay to identify compounds that are cytotoxic to Jurkat human T lymphocyte cells.; assay type: functional
[15] = target: T1, Methionyl-tRNA synthetase, putative (Trypanosoma brucei brucei, UniProt Q38C91); assay type: functional, Trypanosoma brucei brucei strain 927/4 GUTat10.1
T1 sequence (Q38C91 whole entry): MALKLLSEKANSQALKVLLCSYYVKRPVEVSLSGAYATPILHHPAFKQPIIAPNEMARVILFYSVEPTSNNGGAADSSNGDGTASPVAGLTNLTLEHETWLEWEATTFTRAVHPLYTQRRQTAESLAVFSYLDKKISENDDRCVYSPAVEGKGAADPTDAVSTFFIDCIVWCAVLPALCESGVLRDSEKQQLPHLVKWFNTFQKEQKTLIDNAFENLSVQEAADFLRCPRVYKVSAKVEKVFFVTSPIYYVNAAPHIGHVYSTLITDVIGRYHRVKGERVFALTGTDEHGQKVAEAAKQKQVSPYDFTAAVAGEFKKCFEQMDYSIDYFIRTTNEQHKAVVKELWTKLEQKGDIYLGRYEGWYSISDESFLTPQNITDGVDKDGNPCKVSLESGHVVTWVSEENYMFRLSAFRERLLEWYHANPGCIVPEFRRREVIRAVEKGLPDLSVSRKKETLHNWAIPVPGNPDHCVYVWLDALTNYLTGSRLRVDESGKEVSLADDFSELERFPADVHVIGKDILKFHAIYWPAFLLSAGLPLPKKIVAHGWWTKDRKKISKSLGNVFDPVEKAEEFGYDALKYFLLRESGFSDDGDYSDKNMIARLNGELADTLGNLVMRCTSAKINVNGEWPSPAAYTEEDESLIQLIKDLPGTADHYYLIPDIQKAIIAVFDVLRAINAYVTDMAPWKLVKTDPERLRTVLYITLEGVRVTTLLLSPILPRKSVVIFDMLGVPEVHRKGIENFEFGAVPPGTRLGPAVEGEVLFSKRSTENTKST

[16] = HEp-2 cell cytotoxicity, dose response, cytotoxicity control for RSV inhibitor project, HTS (AID 2410); assay type: functional; details: human respiratory syncytial virus
[17] = target: T1, Methionyl-tRNA synthetase, putative; assay type: functional, Trypanosoma brucei brucei strain 927/4 GUTat10.1; remark: listed apart in the source
[18] = target: T2, Sentrin-specific protease 8 (Homo sapiens, UniProt Q96LD8); assay type: functional
T2 sequence (Q96LD8 whole entry): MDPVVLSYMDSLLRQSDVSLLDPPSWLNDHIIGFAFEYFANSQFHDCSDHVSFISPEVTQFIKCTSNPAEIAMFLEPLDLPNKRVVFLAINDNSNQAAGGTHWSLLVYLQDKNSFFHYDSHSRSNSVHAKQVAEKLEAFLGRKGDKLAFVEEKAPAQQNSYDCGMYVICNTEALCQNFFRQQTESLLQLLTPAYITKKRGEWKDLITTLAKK

Caspase-3 = target: T3, Caspase-3 (Homo sapiens, UniProt P42574); experiment: Dose-response confirmation of uHTS inhibitor hits of Sentrin-Specific Protease 8 in a Caspase-3 Fluorescence assay.; assay type: functional
T3 sequence (P42574 whole entry): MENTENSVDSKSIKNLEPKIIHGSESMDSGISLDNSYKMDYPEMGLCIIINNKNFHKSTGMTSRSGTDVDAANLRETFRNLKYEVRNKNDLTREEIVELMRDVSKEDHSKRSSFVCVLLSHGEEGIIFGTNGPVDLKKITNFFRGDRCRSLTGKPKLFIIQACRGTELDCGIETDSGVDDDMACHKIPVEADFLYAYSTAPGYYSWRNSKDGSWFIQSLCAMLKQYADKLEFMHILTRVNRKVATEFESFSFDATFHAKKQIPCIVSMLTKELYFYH

[19] = target: T2, Sentrin-specific protease 8; assay type: functional; remark: listed apart in the source
[20] = Counterscreen for activators of the function of SWI/SNF related, matrix associated, actin dependent regulator of chromatin, subfamily a, member 2 (SMARCA2, BRM): Luminescence-based cell-based high throughput dose response assay to identify non-selective compounds using the VP16 reporter assay.; assay type: functional
[21] = target: SWI/SNF-related matrix-associated actin-dependent regulator of chromatin subfamily A member 2 (Homo sapiens, UniProt P51531); experiment: Luminescence-based cell-based high throughput dose response assay to identify activators of the function of SWI/SNF related, matrix associated, actin dependent regulator of chromatin, subfamily a, member 2 (SMARCA2, BRM).; assay type: functional
[22] = target: T4, Long-chain-fatty-acid--AMP ligase FadD28 (Mycobacterium tuberculosis, UniProt P9WQ59); experiment: Fluorescence polarization aasay to screen for inhibitors that compete for the binding of FadD28 to a bisubstrate Measured in Biochemical System Using Plate Reader - 2147-01_Inhibitor_Dose_CherryPick_Activity.; assay type: functional, Mycobacterium tuberculosis H37Rv
T4 sequence (P9WQ59 whole entry): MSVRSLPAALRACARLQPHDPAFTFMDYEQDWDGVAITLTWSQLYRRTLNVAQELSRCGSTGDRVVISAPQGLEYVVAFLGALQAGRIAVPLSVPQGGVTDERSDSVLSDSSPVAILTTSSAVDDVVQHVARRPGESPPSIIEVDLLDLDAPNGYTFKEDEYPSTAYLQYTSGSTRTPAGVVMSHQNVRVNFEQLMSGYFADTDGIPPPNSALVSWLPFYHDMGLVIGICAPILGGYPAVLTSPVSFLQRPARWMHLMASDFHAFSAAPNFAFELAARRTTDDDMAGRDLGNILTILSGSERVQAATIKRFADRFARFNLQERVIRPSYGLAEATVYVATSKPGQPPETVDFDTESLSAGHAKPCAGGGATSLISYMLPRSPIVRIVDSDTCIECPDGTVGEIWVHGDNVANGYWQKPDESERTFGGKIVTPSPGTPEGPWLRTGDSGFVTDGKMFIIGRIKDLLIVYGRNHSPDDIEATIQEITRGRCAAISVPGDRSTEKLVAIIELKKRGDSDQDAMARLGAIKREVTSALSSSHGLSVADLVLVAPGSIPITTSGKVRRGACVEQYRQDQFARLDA

[23] = target: T5, Sentrin-specific protease 1 (Homo sapiens, UniProt Q9P0U3); experiment: Dose response confirmation of small molecule inhibitors of the catalytic domain of the SUMO protease, SENP1 in a FRET assay.; assay type: functional; details: read-out: IC50_Mean
T5 sequence (Q9P0U3 whole entry): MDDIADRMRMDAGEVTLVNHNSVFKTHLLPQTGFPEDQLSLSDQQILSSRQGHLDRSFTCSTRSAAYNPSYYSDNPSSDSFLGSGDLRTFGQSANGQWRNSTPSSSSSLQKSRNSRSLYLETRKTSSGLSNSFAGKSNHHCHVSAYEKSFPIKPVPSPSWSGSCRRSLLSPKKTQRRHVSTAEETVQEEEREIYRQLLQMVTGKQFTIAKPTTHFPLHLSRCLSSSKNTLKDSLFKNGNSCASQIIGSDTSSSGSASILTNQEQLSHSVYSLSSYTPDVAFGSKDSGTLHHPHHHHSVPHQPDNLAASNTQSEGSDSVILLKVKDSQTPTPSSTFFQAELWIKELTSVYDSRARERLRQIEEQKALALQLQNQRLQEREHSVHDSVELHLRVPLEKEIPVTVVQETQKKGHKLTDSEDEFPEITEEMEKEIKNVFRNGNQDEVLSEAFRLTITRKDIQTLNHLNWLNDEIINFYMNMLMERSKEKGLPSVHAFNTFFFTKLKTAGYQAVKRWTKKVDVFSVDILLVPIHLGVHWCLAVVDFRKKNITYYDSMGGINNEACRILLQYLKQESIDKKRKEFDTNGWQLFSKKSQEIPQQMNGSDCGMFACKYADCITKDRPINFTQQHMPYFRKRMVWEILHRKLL

[24] = target: T5, Sentrin-specific protease 1; experiment: potency of human SENP1 inhibitors, dose response, biochemical, kinetic FRET (AID 651697); assay type: functional; details: read-out: IC50_Mean

Sequence of 5-hydroxytryptamine receptor 2A (P35363 whole entry): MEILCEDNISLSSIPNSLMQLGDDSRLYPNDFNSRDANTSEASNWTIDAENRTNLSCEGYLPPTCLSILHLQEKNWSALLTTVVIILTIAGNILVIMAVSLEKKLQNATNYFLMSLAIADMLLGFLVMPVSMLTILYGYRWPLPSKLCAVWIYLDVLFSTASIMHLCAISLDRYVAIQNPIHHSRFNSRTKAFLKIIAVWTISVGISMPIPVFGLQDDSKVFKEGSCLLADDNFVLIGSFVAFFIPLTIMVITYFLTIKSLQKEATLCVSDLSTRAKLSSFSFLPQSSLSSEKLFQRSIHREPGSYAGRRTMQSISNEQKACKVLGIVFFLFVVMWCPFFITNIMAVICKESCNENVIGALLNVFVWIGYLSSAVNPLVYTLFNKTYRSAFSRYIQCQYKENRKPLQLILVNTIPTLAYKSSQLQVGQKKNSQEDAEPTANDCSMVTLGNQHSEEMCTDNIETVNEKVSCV
Sequence of Mu-type opioid receptor (P35372 whole entry): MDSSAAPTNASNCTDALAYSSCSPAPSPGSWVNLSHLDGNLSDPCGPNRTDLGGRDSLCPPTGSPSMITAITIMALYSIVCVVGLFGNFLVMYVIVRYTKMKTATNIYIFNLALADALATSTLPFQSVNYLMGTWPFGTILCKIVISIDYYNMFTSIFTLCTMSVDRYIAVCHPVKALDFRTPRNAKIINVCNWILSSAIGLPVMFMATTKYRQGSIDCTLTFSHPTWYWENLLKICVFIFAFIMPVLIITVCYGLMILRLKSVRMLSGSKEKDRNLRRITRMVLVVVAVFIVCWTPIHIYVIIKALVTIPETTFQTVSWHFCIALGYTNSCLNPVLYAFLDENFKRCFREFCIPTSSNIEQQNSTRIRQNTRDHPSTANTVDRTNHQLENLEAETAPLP
Sequence of Luciferin 4-monooxygenase (P08659 whole entry): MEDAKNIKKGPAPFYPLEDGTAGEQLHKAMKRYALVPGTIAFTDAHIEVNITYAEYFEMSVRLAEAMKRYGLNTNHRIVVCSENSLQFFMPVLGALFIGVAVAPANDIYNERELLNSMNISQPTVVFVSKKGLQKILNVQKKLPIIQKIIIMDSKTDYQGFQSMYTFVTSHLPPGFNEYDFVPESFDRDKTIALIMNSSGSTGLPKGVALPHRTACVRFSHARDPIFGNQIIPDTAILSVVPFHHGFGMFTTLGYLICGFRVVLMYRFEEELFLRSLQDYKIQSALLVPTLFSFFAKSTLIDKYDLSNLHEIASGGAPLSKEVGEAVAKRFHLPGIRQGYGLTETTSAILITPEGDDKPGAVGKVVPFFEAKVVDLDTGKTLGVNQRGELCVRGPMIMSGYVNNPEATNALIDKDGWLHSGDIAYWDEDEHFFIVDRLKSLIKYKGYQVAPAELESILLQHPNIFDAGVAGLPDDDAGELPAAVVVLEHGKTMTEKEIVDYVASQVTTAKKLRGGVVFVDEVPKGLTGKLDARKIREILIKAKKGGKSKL
Sequence of SWI/SNF-related matrix-associated actin-dependent regulator of chromatin subfamily A member 2 (P51531 whole entry): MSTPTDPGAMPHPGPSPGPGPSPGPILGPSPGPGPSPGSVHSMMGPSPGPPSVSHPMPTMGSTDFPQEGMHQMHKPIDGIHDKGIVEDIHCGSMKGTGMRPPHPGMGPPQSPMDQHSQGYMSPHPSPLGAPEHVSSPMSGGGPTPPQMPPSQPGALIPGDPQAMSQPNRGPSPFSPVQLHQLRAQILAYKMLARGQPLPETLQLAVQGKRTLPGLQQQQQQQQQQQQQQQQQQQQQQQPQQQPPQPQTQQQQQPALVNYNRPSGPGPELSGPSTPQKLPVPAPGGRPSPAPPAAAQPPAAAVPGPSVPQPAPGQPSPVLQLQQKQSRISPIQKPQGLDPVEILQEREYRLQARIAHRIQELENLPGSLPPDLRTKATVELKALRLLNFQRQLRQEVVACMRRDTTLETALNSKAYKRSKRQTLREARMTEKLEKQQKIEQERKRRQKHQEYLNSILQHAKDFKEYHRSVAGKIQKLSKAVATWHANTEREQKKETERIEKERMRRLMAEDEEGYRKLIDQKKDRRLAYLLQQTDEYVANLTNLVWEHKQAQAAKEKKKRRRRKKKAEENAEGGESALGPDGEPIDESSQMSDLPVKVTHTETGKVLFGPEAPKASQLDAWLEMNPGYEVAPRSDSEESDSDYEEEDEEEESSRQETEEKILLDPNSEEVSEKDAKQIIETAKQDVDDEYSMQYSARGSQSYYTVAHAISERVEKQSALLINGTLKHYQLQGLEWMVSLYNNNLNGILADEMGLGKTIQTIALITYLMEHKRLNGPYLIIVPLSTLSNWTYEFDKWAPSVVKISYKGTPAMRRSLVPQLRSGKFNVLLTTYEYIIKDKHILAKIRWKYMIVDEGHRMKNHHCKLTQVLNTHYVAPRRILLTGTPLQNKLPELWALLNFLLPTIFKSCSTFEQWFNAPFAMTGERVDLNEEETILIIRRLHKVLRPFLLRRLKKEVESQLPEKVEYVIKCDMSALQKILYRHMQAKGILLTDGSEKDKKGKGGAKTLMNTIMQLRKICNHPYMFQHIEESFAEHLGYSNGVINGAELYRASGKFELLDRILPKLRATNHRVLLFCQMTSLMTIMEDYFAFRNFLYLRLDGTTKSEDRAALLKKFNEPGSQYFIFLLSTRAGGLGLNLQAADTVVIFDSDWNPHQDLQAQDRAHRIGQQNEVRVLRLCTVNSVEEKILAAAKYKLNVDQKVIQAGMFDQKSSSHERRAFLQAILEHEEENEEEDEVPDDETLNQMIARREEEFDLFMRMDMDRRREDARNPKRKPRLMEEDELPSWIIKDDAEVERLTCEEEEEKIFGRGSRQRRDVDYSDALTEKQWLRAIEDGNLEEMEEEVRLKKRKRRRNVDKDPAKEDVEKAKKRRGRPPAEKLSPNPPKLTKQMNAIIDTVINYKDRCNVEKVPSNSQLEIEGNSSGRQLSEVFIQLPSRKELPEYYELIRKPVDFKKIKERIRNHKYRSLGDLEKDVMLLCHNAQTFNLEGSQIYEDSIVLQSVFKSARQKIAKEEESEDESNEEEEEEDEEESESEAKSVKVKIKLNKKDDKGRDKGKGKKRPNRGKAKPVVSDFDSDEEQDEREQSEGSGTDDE

In the case of Cc1cccc(CN2CCN(c3ncccn3)CC2)c1, the EC50 [1] is reported as 0.182 µM (active) and the EC50 (Mu-type opioid receptor) is reported as 92.5 µM (inactive).
In the case of O=C(Nc1nc2ccccc2[nH]1)c1ccccc1F, the EC50 [2] is reported as 1.86 µM (active), the EC50 (BJ [3]) is reported as 6.85 µM (inconclusive) and the CC50 [4] is reported as 8.56 µM (active). The AC50 [5] was 6.17 µM (active), the AC50 [6] was 6.83 µM (active) and the EC50 (BJ [7]) was 2.44 µM (active). The EC50 (BJ [8]) was 2.23 µM (active), the EC50 (BJ [9]) was > 133 µM (inactive) and the AC50 (INS1) was 3.06 µM (active). The AC50 [10] was 5.17 µM (active), the AC50 [11] was 3.82 µM (active) and the EC50 [12] was 1.19 µM (active). For the same molecule, the EC50 [13] was 1.13 µM (active).
In the case of O=C(NCc1nc2ccccc2[nH]1)C1=C[C@H](c2ccc3c(c2)OCO3)C[C@H](OCc2ccc(CO)cc2)O1, the IC50 [14] is reported as 83.3 µM (inactive), the IC50 [15] is reported as 2.79 µM (active) and the CC50 [16] is reported as > 50 µM (active). For the same molecule, the IC50 [17] was 8.12 µM (active).
With O=C1/C(=C/NCCc2ccccc2)c2ccccc2C(=O)N1Cc1ccccc1 the IC50 [18] was 10.9 µM (active), the IC50 (Caspase-3) was 83.2 µM (inactive) and the IC50 [19] was 4.54 µM (active).
For O=C(c1n[nH]cc1-c1cccc(Br)c1)C1CO1 (configuration not stated), the EC50 [20] was > 91.2 µM (inactive) and the EC50 [21] was > 91.2 µM (inactive).
With COc1cc(/C=C2\CCCc3c2nc2ccccc2c3C(=O)O)cc(Br)c1O the AC50 [22] was 63.8 µM (active), the IC50 [23] was 2.85 µM (active) and the IC50 [24] was 3.84 µM (active).
